This note sets out measurements from ChEMBL document CHEMBL3526034 (Drug Metab Dispos, 2013).

pIC50: −log10 of the molar value. A value given as a limit tells only on which side of the number the result lay.

The target in one data set is CYP2B6 (Homo sapiens, UniProt P20813). The data set can be described thus: Inhibition of CYP2B6 in human liver microsomes using bupropion as substrate at 100 uM preincubated for 20 mins with substrate prior to initiation of reaction with NADPH by HPLC analysis. It is filed as ADME. Conditions: probe bupropion; call rule not given here. Background: Microsomes from liver hold many membrane-bound enzymes, among them those of drug oxidation.

The target in data set [1] is UDP-glucuronosyltransferase 2B7 (Homo sapiens, UniProt P16662). The data set can be described thus: Inhibition of human recombinant UGT2B7 expressed in supersomes assessed as 7-HFC glucuronidation up to 100 uM by fluoresence analysis. The conditions noted are these: recombinant enzyme. Type of data set: ADME.
Data set [2] concerns the target ATP-binding cassette sub-family C member 2 (Homo sapiens, UniProt Q92887). The data set is described as follows: Inhibition of human MRP2.
Another data set deals with T1, Cytochrome P450 2C8 (Homo sapiens, UniProt P10632).
T1 sequence (P10632 whole entry): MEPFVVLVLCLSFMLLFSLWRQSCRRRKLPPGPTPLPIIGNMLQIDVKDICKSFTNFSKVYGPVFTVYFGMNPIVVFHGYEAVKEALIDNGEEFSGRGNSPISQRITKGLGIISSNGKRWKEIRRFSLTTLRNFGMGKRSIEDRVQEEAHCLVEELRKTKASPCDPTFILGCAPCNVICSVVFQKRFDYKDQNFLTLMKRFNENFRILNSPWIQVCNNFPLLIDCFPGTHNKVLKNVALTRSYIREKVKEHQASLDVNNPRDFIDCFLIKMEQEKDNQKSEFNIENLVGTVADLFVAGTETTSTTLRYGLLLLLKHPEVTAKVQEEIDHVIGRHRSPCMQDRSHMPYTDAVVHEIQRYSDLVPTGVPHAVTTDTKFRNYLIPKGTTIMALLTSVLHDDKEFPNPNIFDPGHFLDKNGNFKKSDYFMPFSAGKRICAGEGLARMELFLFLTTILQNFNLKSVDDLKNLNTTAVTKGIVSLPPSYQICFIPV
The data set is described as follows: Metabolism-dependent inhibition of CYP2C8 in human liver microsomes using rosiglitazone as substrate preincubated for 20 mins with NADPH prior to initiation of reaction with probe substrate by HPLC analysis. It is filed as ADME.

Data set [3] concerns the target Solute carrier family 22 member 2 (Homo sapiens, UniProt O15244). The data set can be described thus: Inhibition of human OCT2 expressed in MDCK2 cells using [14C]metformin as substrate at 25 uM by liquid scintillation counting analysis. The conditions noted are these: mdck-ii. It is filed as ADME, cell-based.
Data set [4] has as its target ATP-dependent translocase ABCB1 (Homo sapiens, UniProt P08183). The data set is described as follows: Inhibition of MDR1 (unknown origin) expressed in MDCK2 cells assessed as basolateral to apical transport of [3H]digoxin after 90 mins by liquid scintillation counting analysis. It is filed as ADME, cell-based, MDCK-II.
In data set [5] the target is T2, UDP-glucuronosyltransferase 1A1 (Homo sapiens, UniProt P22309).
T2 sequence (P22309 whole entry): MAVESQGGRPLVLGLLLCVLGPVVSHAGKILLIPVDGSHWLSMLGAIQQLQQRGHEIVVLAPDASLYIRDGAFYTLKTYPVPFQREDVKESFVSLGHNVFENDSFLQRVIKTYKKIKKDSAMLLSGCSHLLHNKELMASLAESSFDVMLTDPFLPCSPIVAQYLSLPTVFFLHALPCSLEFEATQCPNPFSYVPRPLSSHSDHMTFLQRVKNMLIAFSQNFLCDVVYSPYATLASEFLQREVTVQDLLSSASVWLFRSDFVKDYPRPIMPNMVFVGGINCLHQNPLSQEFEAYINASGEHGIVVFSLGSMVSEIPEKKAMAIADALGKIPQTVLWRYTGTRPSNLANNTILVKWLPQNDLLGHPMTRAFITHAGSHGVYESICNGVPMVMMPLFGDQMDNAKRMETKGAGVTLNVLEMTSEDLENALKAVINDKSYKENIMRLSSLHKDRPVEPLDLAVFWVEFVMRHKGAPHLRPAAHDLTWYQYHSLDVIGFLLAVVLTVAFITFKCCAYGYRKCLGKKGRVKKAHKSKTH
The data set is described as follows: Drug metabolism assessed as intrinsic clearance for human recombinant UGT1A1-mediated DTG glucuronide M2 ((2S,3S,4S,5R,6S)-6-((4R,12aS)-9-(2,4-difluorobenzylcarbamoyl)-4-methyl-6,8-dioxo-3,4,6,8,12,12a-hexahydro-2H-[1,3]oxazino[3,2-d]pyrido[1,2-a]pyrazin-7-yloxy)-3,4,5-trihydroxytetrahydro-2H-pyran-2-carboxylic acid) formation after 120 mins measured per mg of protein by radio-HPLC analysis. It is filed as ADME. Conditions: recombinant enzyme.

The next data set has as its system Liver microsome. The data set can be described thus: Drug metabolism in NADPH-fortified human liver microsomes assessed as metabolite M3 ((4R,12aS)-N-((3,5-difluorophenyl)(hydroxy)methyl)-7-hydroxy-4-methyl-6,8-dioxo-3,4,6,8,12,12a-hexahydro-2H-[1,3]oxazino[3,2-d]pyrido[1,2-a]pyrazine-9-carboxamide) formation at 5 uM after 120 mins treated 5 mins after selective CYP3A4 inhibitor azamulin addition by radio-HPLC analysis. It is filed as ADME.

The target in the next data set is Cytochrome P450 2C9 (Homo sapiens, UniProt P11712). The data set can be described thus: Drug metabolism in supersomes expressing human recombinant CYP2C9 assessed as NADPH-fortified enzyme-mediated metabolite formation at 5 uM after 120 mins by radio HPLC analysis. It is filed as ADME. The conditions noted are these: 2 h.
A further data set concerns the target Cytochrome P450 2C19 (Homo sapiens, UniProt P33261). The data set is described as follows: Drug metabolism in supersomes expressing human recombinant CYP2C19 assessed as NADPH-fortified enzyme-mediated metabolite formation at 5 uM after 120 mins by radio HPLC analysis. Type of data set: ADME. The conditions noted are these: 2 h.
A further data set concerns the target Cytochrome P450 2D6 (Homo sapiens, UniProt P10635). The data set is described as follows: Drug metabolism in supersomes expressing human recombinant CYP2D6 assessed as NADPH-fortified enzyme-mediated metabolite formation at 5 uM after 120 mins by radio HPLC analysis. It is filed as ADME. Conditions: 2 h.
Data set [6] can be described thus: Drug metabolism in human hepatocytes assessed as DTG glucuronide metabolite ((2S,3S,4S,5R,6S)-6-((4R,12aS)-9-(2,4-difluorobenzylcarbamoyl)-4-methyl-6,8-dioxo-3,4,6,8,12,12a-hexahydro-2H-[1,3]oxazino[3,2-d]pyrido[1,2-a]pyrazin-7-yloxy)-3,4,5-trihydroxytetrahydro-2H-pyran-2-carboxylic acid) formation at 50 uM after 4 to 20 hrs by radio-HPLC analysis. It is filed as ADME, cell-based, Hepatocyte.

Chain of Cytochrome P450 2C19 (P33261 whole entry): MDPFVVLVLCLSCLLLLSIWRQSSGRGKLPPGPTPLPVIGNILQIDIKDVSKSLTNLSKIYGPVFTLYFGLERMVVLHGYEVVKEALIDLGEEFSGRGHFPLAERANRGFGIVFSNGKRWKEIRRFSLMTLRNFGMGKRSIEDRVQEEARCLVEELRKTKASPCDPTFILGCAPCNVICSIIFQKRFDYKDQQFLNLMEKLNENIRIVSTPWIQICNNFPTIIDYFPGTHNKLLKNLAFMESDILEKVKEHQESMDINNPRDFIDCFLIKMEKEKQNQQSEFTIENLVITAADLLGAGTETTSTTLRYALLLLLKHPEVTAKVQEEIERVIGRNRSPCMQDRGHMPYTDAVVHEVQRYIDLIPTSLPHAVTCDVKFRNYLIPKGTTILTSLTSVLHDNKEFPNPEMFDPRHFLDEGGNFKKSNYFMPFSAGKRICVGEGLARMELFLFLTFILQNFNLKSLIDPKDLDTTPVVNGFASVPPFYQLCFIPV
Chain of Cytochrome P450 2C9 (P11712 whole entry): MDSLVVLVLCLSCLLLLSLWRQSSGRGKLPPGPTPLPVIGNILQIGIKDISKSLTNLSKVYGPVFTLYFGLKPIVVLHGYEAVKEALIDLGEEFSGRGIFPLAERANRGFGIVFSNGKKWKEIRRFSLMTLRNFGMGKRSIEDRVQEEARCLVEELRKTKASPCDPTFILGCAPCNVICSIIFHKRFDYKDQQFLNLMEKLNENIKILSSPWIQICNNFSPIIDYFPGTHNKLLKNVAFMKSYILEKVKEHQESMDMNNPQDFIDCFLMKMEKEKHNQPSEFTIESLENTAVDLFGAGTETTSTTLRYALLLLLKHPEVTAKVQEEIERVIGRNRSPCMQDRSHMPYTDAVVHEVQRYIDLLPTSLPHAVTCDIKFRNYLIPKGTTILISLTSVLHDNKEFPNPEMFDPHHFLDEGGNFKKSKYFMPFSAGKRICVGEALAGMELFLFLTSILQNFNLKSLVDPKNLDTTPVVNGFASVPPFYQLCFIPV
Chain of Solute carrier family 22 member 2 (O15244 whole entry): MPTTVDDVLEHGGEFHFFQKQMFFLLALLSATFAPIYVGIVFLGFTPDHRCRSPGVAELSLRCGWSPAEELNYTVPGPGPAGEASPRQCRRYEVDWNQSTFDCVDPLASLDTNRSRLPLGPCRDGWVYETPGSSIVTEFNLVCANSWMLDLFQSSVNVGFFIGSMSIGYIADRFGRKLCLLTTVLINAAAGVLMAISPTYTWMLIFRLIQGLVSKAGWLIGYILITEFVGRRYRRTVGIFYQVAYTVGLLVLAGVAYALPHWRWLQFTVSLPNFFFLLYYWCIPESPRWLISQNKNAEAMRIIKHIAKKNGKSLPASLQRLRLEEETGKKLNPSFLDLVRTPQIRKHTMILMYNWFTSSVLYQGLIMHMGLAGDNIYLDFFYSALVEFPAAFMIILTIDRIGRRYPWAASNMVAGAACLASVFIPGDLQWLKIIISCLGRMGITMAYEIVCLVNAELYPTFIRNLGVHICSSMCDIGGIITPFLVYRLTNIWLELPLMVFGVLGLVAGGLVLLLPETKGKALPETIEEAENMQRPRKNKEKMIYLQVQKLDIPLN
Chain of CYP2B6 (P20813 whole entry): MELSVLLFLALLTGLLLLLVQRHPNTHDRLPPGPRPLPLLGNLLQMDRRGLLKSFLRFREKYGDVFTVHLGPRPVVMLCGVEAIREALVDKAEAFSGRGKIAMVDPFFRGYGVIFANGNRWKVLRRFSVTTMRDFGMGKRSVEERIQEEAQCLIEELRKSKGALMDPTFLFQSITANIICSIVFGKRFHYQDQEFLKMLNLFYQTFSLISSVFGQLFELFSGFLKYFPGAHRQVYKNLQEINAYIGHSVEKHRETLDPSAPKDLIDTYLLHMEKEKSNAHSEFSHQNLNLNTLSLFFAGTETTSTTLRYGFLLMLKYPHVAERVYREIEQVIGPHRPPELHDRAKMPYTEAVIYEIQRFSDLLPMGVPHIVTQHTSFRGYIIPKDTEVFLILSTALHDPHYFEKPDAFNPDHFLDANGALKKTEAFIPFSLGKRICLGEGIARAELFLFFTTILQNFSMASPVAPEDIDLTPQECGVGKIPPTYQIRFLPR
Chain of UDP-glucuronosyltransferase 2B7 (P16662 whole entry): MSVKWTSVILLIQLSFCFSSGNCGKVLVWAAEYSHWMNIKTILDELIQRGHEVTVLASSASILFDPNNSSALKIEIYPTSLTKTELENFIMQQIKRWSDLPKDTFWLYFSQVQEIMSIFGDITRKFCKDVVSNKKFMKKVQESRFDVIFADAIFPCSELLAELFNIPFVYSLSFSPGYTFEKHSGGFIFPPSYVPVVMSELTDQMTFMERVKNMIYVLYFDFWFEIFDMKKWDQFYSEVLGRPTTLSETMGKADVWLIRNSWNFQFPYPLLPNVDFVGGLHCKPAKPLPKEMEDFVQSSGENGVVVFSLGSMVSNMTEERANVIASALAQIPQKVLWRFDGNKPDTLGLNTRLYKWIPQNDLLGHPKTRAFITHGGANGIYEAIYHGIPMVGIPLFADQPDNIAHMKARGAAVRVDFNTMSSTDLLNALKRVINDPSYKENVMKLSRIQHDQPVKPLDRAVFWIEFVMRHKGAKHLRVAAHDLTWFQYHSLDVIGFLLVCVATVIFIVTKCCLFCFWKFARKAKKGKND
Chain of ATP-binding cassette sub-family C member 2 (Q92887 whole entry): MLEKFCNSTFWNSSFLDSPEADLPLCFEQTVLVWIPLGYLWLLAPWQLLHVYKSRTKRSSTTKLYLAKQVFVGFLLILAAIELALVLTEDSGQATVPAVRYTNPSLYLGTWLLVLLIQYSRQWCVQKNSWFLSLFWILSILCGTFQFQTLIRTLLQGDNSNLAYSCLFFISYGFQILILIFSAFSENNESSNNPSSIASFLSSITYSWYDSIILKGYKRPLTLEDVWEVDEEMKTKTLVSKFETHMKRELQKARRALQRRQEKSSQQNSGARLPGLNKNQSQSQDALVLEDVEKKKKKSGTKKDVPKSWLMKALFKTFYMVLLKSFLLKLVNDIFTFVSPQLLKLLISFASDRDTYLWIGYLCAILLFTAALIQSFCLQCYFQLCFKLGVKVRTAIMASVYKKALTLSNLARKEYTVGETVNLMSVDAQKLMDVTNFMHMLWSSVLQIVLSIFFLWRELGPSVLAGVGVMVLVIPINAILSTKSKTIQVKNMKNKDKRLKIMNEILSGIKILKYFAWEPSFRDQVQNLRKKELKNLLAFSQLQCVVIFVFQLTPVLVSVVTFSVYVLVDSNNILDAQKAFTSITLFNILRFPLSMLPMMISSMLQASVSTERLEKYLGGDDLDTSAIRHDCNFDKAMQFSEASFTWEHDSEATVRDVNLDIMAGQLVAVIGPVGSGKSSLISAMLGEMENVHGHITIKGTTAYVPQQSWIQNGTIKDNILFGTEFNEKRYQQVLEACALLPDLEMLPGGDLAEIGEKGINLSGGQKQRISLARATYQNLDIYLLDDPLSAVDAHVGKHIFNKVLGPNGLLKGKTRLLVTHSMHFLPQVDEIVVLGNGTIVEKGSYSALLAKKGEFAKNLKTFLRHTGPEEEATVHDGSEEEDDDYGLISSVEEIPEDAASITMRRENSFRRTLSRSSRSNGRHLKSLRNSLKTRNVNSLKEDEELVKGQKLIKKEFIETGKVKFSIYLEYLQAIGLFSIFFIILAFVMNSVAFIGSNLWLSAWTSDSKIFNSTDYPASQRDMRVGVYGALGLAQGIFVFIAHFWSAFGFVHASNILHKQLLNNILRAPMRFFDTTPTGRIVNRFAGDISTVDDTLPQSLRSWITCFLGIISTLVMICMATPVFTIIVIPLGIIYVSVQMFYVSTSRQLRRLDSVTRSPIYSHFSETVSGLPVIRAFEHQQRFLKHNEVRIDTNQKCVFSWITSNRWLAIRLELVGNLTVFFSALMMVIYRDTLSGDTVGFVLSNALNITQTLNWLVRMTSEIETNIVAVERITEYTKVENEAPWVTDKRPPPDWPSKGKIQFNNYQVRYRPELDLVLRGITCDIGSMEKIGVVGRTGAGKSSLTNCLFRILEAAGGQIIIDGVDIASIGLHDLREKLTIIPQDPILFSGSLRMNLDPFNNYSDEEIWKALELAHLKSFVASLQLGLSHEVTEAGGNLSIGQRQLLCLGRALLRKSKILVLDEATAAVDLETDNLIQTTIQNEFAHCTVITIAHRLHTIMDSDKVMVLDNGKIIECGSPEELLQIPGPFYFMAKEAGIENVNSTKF
Chain of Cytochrome P450 2D6 (P10635 whole entry): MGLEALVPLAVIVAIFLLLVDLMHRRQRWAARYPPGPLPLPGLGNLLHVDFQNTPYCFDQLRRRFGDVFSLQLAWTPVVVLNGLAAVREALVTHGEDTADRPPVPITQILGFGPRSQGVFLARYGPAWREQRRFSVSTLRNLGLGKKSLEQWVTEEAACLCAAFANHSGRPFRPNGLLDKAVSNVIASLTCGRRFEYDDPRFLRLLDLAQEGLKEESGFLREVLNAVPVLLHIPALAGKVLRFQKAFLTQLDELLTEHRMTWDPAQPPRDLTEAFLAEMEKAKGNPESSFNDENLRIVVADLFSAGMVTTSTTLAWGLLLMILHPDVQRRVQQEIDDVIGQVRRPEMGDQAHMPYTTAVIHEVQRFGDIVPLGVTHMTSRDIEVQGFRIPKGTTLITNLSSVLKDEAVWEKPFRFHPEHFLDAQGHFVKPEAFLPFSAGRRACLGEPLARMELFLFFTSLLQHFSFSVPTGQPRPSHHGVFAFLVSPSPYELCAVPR

The term inhibition denotes how much of the control response was suppressed. A higher inhibition goes with a response far below the control. The pIC50 is the negative decadic logarithm of the IC50, by convention in mol/L. At CYP2B6, `C[C@@H]1CCO[C@H]2Cn3cc(C(=O)NCc4ccc(F)cc4F)c(=O)c(O)c3C(=O)N12` [DOLUTEGRAVIR] registered an inhibition at 100 µM of 20%. For the same compound, the “inhibition (INH)” value in [1] is recorded as “Not Active”; in data set [3], 91%. The pIC50 was < 4.05 in data set [2], < 4.00 against Cytochrome P450 2C8 and < 4.00 in [4]. Besides, the CL in [5] is 3.2 µL/min/g. Further, the Drug metabolism result with Liver microsome is listed as “metabolite_not_detected”; on Cytochrome P450 2C9 it was “metabolite_not_detected”; at Cytochrome P450 2C19, “metabolite_not_detected”; on Cytochrome P450 2D6, “metabolite_not_detected”; in data set [6], “metabolite_detected”.
